Measurements: patent US20230128688A1, “DIRECTED CONJUGATION TECHNOLOGIES” (KLEO PHARMACEUTICALS, INC., priority 2019, published 2023)
Non-standard residues stand in square brackets, D forms with d. Residues, ends and D or L forms follow the SMILES beside them. *: point of attachment. X2 = O=C(CCOCCOCCOCCOCCOCCOCCNC(=S)Nc1ccc2c(c1)C(=O)OC21c2ccc(O)cc2Oc2cc(O)ccc21)Oc1c(F)cc(CN*)cc1F; PEG4 = NCCOCCOCCOCCOCCC(=O)O

Key:
daratumumab = assay: Absorbance based DAR analysis of FITC conjugation to antibody; format: biochemical
Experimental: (§1) In some embodiments, reaction partners, e.g., compounds of formula R-I or salts thereof ere dissolved in DMSO to 5 mM stock solution.
(§2) In some embodiments, reactions are set up with 300 micrograms of antibody. In some embodiments, various conditions, including various buffers, reagent equivalents, reaction time, reaction temperature and reaction concentrations can be utilized.
As an example, one reaction is 300 microliter reaction with 1 mg/mL of antibody in PBS. Peptide I-45 (1 microliter of 5 mM stock in DMSO, 2.5 molar equivalents relative to daratumumab) was diluted in 284 microliters of PBS buffer (10 mM phosphate, 150 mM sodium chloride, pH 7.4), then 15 microliters of daratumumab (20 mg/mL stock) was added to the reaction mixture followed by incubation at room temperature in the dark. After 4 h reaction buffer was exchanged using Amicon Ultra centrifuge filter (30 KDa MWCO, 0.5 mL volume). First, glycine buffer (100 mM, pH 2.1) was used for buffer exchange to ensure dissociation of target binding moieties after reaction. Then, phosphate buffer saline (pH 7.4) was used for further buffer exchange and storage.
In another example, a reaction is 300 microliter reaction with 1 mg/mL of antibody in borate buffer. Peptide I-44 (1.2 microliter of 5 mM stock in DMSO, 3.0 molar equivalents relative to daratumumab) was diluted in 284 microliters of Borate buffer (100 mM borate, pH 8.3), then 15 microliters of daratumumab (20 mg/mL stock) was added to the reaction mixture followed by incubation at room temperature in the dark. After 20 h reaction buffer was exchanged using Amicon Ultra centrifuge filter (30 KDa MWCO, 0.5 mL volume). First, glycine buffer (100 mM, pH 2.1) was used for buffer exchange to ensure dissociation of target binding moieties after reaction. Then, phosphate buffer saline (10 mM phosphate, 150 mM sodium chloride, pH 7.4) was used for further buffer exchange and storage.
(§3) In some embodiments, a useful technology is absorbance based DAR analysis. DAR (ratio of moieties of interest and target agent moieties (e.g., antibody agent moieties) was calculated for various antibody conjugates, e.g., in various reagent screening/assessment methods. Various agents comprising target binding moieties were assessed for conjugation efficiency as reaction partners with targets, e.g. protein agents such as antibody agents, compared to reagents with the same reactive groups but without target binding moieties. In various ratio determination ‘Drug’/moiety of interest is fluorescein isothiocyanate (FITC) dye conjugated to target agents, e.g., antibody agents. DAR molar ratio is defined as a ratio of moles of drug/moiety of interest to moles of target agent/antibody. Molarity is calculated from absorbance of FITC (A485) and antibody (A280) of conjugated product, and extinction coefficients of FITC and antibody using Beer-Lambert law. Correction coefficient 0.35 was used to correct for absorbance of FITC at 280 nm. Biotek Synergy H1 microplate reader and Take3 microvolume plate were used for absorbance measurements. Concentration of antibody was at least 3 mg/mL for optimal signal-to-noise in the readings. Certain target binding moieties that can provide higher DAR compared to equivalent controls (absence of target binding moieties) were selected as hits for further analysis. Certain assessment data were provided below as examples.

Cetuximab = assay: as above; format: biochemical; conditions: 2.5 M eq reagent, phosphate buffer saline pH 7.4, 4 h, 25 C; Drug = FITC
Experimental: as §1, §2, §3
Reactions were set up with antibodies using 2.5 M eq of indicated reagent in phosphate buffer saline pH 7.4 for 4 h at 25° C. DAR is Drug to antibody ratio, in this case “Drug” is FITC and DAR is measured using FITC absorbance.

[1] = 2.5 M eq reagent, phosphate buffer saline pH 7.4, 4 h, 25 C, Drug = FITC
[2] = 10 M eq reagent, Bicarbonate buffer pH 8.3, 2 h, 37 C, Drug = FITC
[3] = antibody 1 mg/mL, 2.5 M eq, 25 C, 20 h, PBS pH 7.4
[4] = antibody 1 mg/mL, 3 M eq, 25 C, 20 h, PBS pH 7.4
[5] = antibody 1 mg/mL, 3.5 M eq, 25 C, 20 h, PBS pH 7.4
[6] = antibody 4 mg/mL, 2.5 M eq, 25 C, 20 h, PBS pH 7.4
[7] = antibody 4 mg/mL, 3 M eq, 25 C, 20 h, PBS pH 7.4
[8] = antibody 4 mg/mL, 3.5 M eq, 25 C, 20 h, PBS pH 7.4
[9] = 2.5 M eq, 25 C, 4 h, PBS pH 7.4
[10] = 2.5 M eq, 25 C, 20 h, Borate pH 8.2
[11] = 2.5 M eq, 25 C, 20 h, PBS pH 7.4
[12] = 2.5 M eq, 25 C, 20 h, PBS pH 7.8
[13] = 2.5 M eq, 25 C, 20 h, PBS pH 8.0
[14] = 2.5 M eq, 25 C, 20 h, PBS pH 8.2
[15] = 2.5 M eq, 30 C, 20 h, PBS pH 7.4
[16] = 2.5 M eq, 37 C, 20 h, PBS pH 7.4

## CC(=O)NCc1cc(F)c(OC(=O)CCOCCOCCOCCOCCOCCOCCNC(=S)Nc2ccc3c(c2)C(=O)OC32c3ccc(O)cc3Oc3cc(O)ccc32)c(F)c1 [Compound I-9]
daratumumab; [1]
  DAR: 0.06
  DAR Daratumumab: 0.06
daratumumab; [2]
  DAR: 1.10
daratumumab; [3]
  DAR: 0.19
daratumumab; [4]
  DAR: 0.18
daratumumab; [5]
  DAR: 0.24
daratumumab; [6]
  DAR: 0.37
daratumumab; [7]
  DAR: 0.49
daratumumab; [8]
  DAR: 0.44
Cetuximab
  DAR Cetuximab: 0.03

## CC(=O)NCC(=O)N[C@@H](CO)C(=O)N[C@@H](Cc1ccc(O)cc1)C(=O)N[C@@H](Cc1c[nH]c2ccccc12)C(=O)N[C@@H](Cc1ccc(O)cc1)C(=O)N[C@@H](CC(=O)O)C(=O)N[C@H](C(=O)N[C@@H](Cc1c[nH]c2ccccc12)C(=O)N[C@@H](Cc1ccccc1)C(=O)NCCOCCOCCOCCOCCC(=O)NCc1cc(F)c(OC(=O)CCOCCOCCOCCOCCOCCOCCNC(=S)Nc2ccc3c(c2)C(=O)OC32c3ccc(O)cc3Oc3cc(O)ccc32)c(F)c1)C(C)C [Compound I-45] (Ac-GSYWYDVWF[PEG4]-X2)
daratumumab; [1]
  DAR: 0.64
  DAR Daratumumab: 0.64
daratumumab; [3]
  DAR: 0.90
  Fold (DAR I-45 over I-9): 4.78
daratumumab; [4]
  DAR: 0.96
  Fold (DAR I-45 over I-9): 5.31
daratumumab; [5]
  DAR: 1.06
  Fold (DAR I-45 over I-9): 4.39
daratumumab; [6]
  DAR: 1.04
  Fold (DAR I-45 over I-9): 2.81
daratumumab; [7]
  DAR: 1.09
  Fold (DAR I-45 over I-9): 2.23
daratumumab; [8]
  DAR: 1.06
  Fold (DAR I-45 over I-9): 2.40
daratumumab; sample (a) of FIG. 12 / FIG. 13
  FITC DAR: 0.43
Cetuximab
  DAR Cetuximab: 0.70

## CCCCNc1nc(NCCOCCOCCC(=O)NCc2ccc(OC(=O)CCOCCOCCOCCOCCOCCOCCNC(=S)Nc3ccc4c(c3)C(=O)OC43c4ccc(O)cc4Oc4cc(O)ccc43)c(F)c2)nc(NCc2cccc(F)c2)n1 [Compound I-14]
daratumumab; [2]
  DAR: 0.29

## CC(=O)N[C@@H](CC(=O)O)C(=O)N[C@H]1CSSC[C@@H](C(=O)N[C@H](C(=O)O)[C@@H](C)O)NC(=O)[C@H](Cc2c[nH]c3ccccc23)NC(=O)[C@H](C(C)C)NC(=O)[C@H](CC(C)C)NC(=O)[C@H](CCC(=O)O)NC(=O)CNC(=O)[C@H](CC(C)C)NC(=O)[C@H](CC(=O)NCc2ccc(OC(=O)CCOCCOCCOCCOCCOCCOCCOCCOCCNC(=S)Nc3ccc4c(c3)C(=O)OC43c4ccc(O)cc4Oc4cc(O)ccc43)c(F)c2)NC(=O)[C@H](Cc2c[nH]c3ccccc23)NC(=O)[C@H](C)NC1=O [Compound I-44]
daratumumab; [1]
  DAR: 0.59
daratumumab; [9]
  DAR: 0.59
  Fold (DAR I-44 over I-10): 7.79
daratumumab; [10]
  DAR: 1.42
  Fold (DAR I-44 over I-10): 6.83
daratumumab; [11]
  DAR: 1.09
  Fold (DAR I-44 over I-10): 16.08
daratumumab; [12]
  DAR: 1.00
  Fold (DAR I-44 over I-10): 6.58
daratumumab; [13]
  DAR: 0.99
  Fold (DAR I-44 over I-10): 15.39
daratumumab; [14]
  DAR: 1.14
  Fold (DAR I-44 over I-10): 36.42
daratumumab; [15]
  DAR: 1.15
  Fold (DAR I-44 over I-10): 21.43
daratumumab; [16]
  DAR: 1.66
  Fold (DAR I-44 over I-10): 9.77
daratumumab; FIG. 16 (e): Borate buffer pH 8.2, 25 C, 20 h, 2.5 M eq
  FITC DAR: 0.21

## O=C(CCCc1c[nH]c2ccccc12)NCc1ccc(OC(=O)CCOCCOCCOCCOCCOCCOCCNC(=S)Nc2ccc3c(c2)C(=O)OC32c3ccc(O)cc3Oc3cc(O)ccc32)c(F)c1 [Compound I-17]
daratumumab; 5 M eq reagent, bicarbonate buffer pH 8.3, 20 h, 37 C, Drug = FITC
  DAR: 0.37

## CCCCNc1nc(NCCOCCOCCC(=O)NCc2ccc(OC(=O)CCOCCOCCOCCOCCOCCOCCNC(=S)Nc3ccc4c(c3)C(=O)OC43c4ccc(O)cc4Oc4cc(O)ccc43)cc2)nc(NCc2cccc(F)c2)n1 [Compound I-15]
daratumumab; [2]
  DAR: 0.74

## N=C(N)NCCC[C@H](NC(=O)CCOCCOCCNC(=O)c1ccc(OC(=O)CCOCCOCCOCCOCCOCCOCCNC(=S)Nc2ccc3c(c2)C(=O)OC32c3ccc(O)cc3Oc3cc(O)ccc32)cc1)C(=O)N[C@@H](CCCNC(=N)N)C(=O)NCC(=O)N[C@@H](Cc1c[nH]c2ccccc12)C(=O)O [Compound I-23]
daratumumab; 10 M eq reagent, Bicarbonate buffer pH 8.3, 20 h, 25 C, Drug = FITC
  DAR: 0.14

## CCNC(=O)c1ccc(OC(=O)CCOCCOCCOCCOCCOCCOCCNC(=S)Nc2ccc3c(c2)C(=O)OC32c3ccc(O)cc3Oc3cc(O)ccc32)c(F)c1 [Compound I-18]
daratumumab; [1]
  DAR: 0.05
  DAR Daratumumab: 0.05
daratumumab; 2.5 M eq, 25 C, 4 h, Acetate pH 6.2
  DAR: 0.08
daratumumab; 2.5 M eq, 25 C, 4 h, Borate pH 8.3
  DAR: 0.35
daratumumab; [9]
  DAR: 0.05
daratumumab; 5 M eq reagent, phosphate buffer saline pH 7.4, 4 h, 25 C, Drug = FITC
  DAR: 0.15
daratumumab; 5 M eq, 25 C, 4 h, Acetate pH 6.2
  DAR: 0.14
daratumumab; 5 M eq, 25 C, 4 h, Borate pH 8.3
  DAR: 0.42
daratumumab; 5 M eq, 25 C, 4 h, PBS pH 7.4
  DAR: 0.08
daratumumab; 10 M eq, 25 C, 2 h, Acetate pH 6.2
  DAR: 0.12
daratumumab; 10 M eq, 25 C, 4 h, Borate pH 8.3
  DAR: 0.77
daratumumab; 10 M eq, 25 C, 4 h, PBS pH 7.4
  DAR: 0.15
Cetuximab
  DAR Cetuximab: 0.04

## CCNC(=O)c1ccc(OC(=O)CCOCCOCCOCCOCCOCCOCCNC(=S)Nc2ccc3c(c2)C(=O)OC32c3ccc(O)cc3Oc3cc(O)ccc32)cc1 [Compound I-19]
daratumumab; [1]
  DAR: 0.20
